This note sets out measurements from patent publication US9394311B2, “Triazolo compounds as PDE10 inhibitors” (Hoffmann-La Roche Inc., priority 2012, dated 2016).

pIC50: −log10 of the molar value.

In this test the target is human PDE10A (Homo sapiens (Human), UniProt Q9Y233). Description: human PDE10A full length Scintillation Proximity Assay (SPA). In kind it is biochemical. Particulars: PDE10A full length enzyme, 50 nM cGMP / [3H]-cGMP substrate, 20 minutes at room temperature. Summed up: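 Full-length human PDE10A with 50 nM cGMP plus 50 nM [3H]-cGMP in 20 mM HEPES pH 7.5, 10 mM MgCl2, 0.05 mg/ml BSA; 20 min at room temperature. Stopped with yttrium silicate SPA beads in zinc sulphate, scintillation counted; IC50 from concentration range.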
Chain of human PDE10A (Q9Y233 other isoform, or with tags, fused parts or gaps): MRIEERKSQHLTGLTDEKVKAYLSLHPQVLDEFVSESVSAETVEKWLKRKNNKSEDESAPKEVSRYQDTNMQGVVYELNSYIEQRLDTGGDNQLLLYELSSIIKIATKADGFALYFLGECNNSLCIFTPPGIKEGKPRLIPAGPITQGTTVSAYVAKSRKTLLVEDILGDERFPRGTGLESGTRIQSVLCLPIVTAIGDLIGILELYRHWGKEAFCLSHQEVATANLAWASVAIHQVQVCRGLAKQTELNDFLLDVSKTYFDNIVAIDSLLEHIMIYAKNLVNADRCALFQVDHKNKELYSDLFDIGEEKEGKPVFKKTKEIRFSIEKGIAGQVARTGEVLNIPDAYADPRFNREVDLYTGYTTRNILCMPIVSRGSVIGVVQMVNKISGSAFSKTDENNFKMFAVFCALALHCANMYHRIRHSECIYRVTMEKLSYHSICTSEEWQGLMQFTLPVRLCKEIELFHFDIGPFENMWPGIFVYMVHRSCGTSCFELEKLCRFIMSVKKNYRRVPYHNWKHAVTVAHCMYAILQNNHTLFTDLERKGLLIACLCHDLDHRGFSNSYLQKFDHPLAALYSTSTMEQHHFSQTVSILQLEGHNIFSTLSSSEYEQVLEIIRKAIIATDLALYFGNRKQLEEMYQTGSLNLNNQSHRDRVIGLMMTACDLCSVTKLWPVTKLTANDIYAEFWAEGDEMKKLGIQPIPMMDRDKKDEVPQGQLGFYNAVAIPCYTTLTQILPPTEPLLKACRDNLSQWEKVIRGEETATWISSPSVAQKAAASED
(In a scintillation proximity assay essentially only radioactivity close to the scintillant gives light.)
The pIC50 is the IC50 on a negative log10 scale, so that one unit is a factor of ten. A lower pIC50 goes with a high IC50. With `CCc1cc(C(F)(F)F)c2nc(CCc3nc(N4CCCC4)nn3C)nn2c1C` [Example 86, 6-Ethyl-5-methyl-2-[2-(2-methyl-5-pyrrolidin-1-yl-2H-[1,2,4]triazol-3-yl)-ethyl]-8-trifluoromethyl-[1,2,4]triazolo[1,5-a]pyridine], the pIC50 is 8.46.

For the compound `Cc1c(Br)cc(C(F)(F)F)c2nc(CCc3nc(N4CCCC4)nn3C)nn12` [Example 82, 6-Bromo-5-methyl-2-[2-(2-methyl-5-pyrrolidin-1-yl-2H-[1,2,4]triazol-3-yl)-ethyl]-8-trifluoromethyl-[1,2,4]triazolo[1,5-c]pyridine], the pIC50 is 9.32.

The compound `Cc1ncc(C)n2nc(CCc3nc(N4CC(F)(F)C4)nn3C)nc12` [Example 90, 2-{2-[5-(3,3-Difluoro-azetidin-1-yl)-2-methyl-2H-[1,2,4]triazol-3-yl]-ethyl}-5,8-dimethyl-[1,2,4]triazolo[1,5-a]pyrazine] gave a pIC50 of 6.32.

The compound `Cc1cnc(C)n2nc(CCc3nc(N4CCC[C@H]4C)nn3C)nc12` [Example 113, 5,8-Dimethyl-2-{2-[2-methyl-5-((R)-2-methyl-pyrrolidin-1-yl)-2H-[1,2,4]triazol-3-yl]-ethyl}-[1,2,4]triazolo[1,5-c]pyrimidine] had a pIC50 of 6.88. This pIC50 lies 0.56 log units higher than the previous one.

In the case of `CCN(C)c1nc(CCc2nc3c(C)ncc(C)n3n2)n(C)n1` [Example 23, {5-[2-(5,8-Dimethyl-[1,2,4]triazolo[1,5-a]pyrazin-2-yl)-ethyl]-1-methyl-1H-[1,2,4]triazol-3-yl}-ethyl-methyl-amine], the pIC50 is 6.99.

In turn, `Cn1nc(N2CCCC2)nc1CCc1nc2ccc(Cl)cn2n1` [Example 26, 6-Chloro-2-(2-(1-methyl-3-(pyrrolidin-1-yl)-1H-1,2,4-triazol-5-yl)ethyl)-[1,2,4]triazolo[1,5-a]pyridine] gave a pIC50 of 7.20. This pIC50 is 0.21 log units higher than that of the compound before.

Consider `Cc1ncc(C)n2nc(CCc3nc(N4CC[C@H](C)C4)nn3C)nc12` [Example 115, 5,8-Dimethyl-2-{2-[2-methyl-5-((S)-3-methyl-pyrrolidin-1-yl)-2H-[1,2,4]triazol-3-yl]-ethyl}-[1,2,4]triazolo[1,5-a]pyrazine], for which the pIC50 was 8.26.

Compound `Cc1c(Cl)cc(Cl)c2nc(CCc3nc(N4CCCC4)nn3C)nn12` [Example 52, 6,8-Dichloro-5-methyl-2-[2-(2-methyl-5-pyrrolidin-1-yl-2H-[1,2,4]triazol-3-yl)-ethyl]-[1,2,4]triazolo[1,5-a]pyridine] had a pIC50 of 9.20.

Turning to `Cc1ncc(C)n2nc(CC(C)c3nc(N4CCCC4)nn3C)nc12` (single isomer, unassigned; (-)) [Example 126, (−)-5,8-Dimethyl-2-(2-(1-methyl-3-(pyrrolidin-1-yl)-1H-1,2,4-triazol-5-yl)propyl)-[1,2,4]triazolo[1,5-a]pyrazine], the pIC50 is 6.49.

For `COc1ccc(Cn2nc(CCc3nc4c(Cl)cc(Cl)c(C)n4n3)nc2N2CCCC2)cc1` [Example 62, 6,8-Dichloro-2-(2-(1-(4-methoxybenzyl)-5-(pyrrolidin-1-yl)-1H-1,2,4-triazol-3-yl)ethyl)-5-methyl-[1,2,4]triazolo[1,5-a]pyridine], the pIC50 is 8.49.

Consider `COc1ccc(Cn2nc(C#Cc3nc4cc(Cl)ccn4n3)nc2N2CCCC2)cc1` [Example 19, 7-Chloro-2-[1-(4-methoxy-benzyl)-5-pyrrolidin-1-yl-1H-[1,2,4]triazol-3-ylethynyl]-[1,2,4]triazolo[1,5-a]pyridine], for which the pIC50 was 6.32.

Consider `CCn1nc(CCc2nc3c(C)ncc(C)n3n2)nc1N1CCCC1` [Example 48, 2-(2-(1-Ethyl-5-(pyrrolidin-1-yl)-1H-1,2,4-triazol-3-yl)ethyl)-5,8-dimethyl-[1,2,4]triazolo[1,5-a]pyrazine], for which the pIC50 is 7.55. This pIC50 lies 1.23 log units higher than the previous one.

`CCn1nc(N2CCCC2)nc1/C=C/c1nc2nc(C)cc(C)n2n1` [Example 3, 2-[2-(2-Ethyl-5-pyrrolidin-1-yl-2H-[1,2,4]triazol-3-yl)-vinyl]-5,8-dimethyl-[1,2,4]triazolo[1,5-a]pyrimidine] gave a pIC50 of 6.69.

As for `Cc1ncc(C)n2nc(CCc3nc(N4CCCC4)nn3C)nc12` [Example 14, 5,8-Dimethyl-2-[2-(2-methyl-5-pyrrolidin-1-yl-2H-[1,2,4]triazol-3-yl)-ethyl]-[1,2,4]triazolo[1,5-a]pyrazine], the pIC50 was 8.24.

In turn, `Cc1cc2nc(CCc3nc(N4CCCC4)nn3C)nn2c(C)n1` [Example 45, 5,7-Dimethyl-2-(2-(1-methyl-3-(pyrrolidin-1-yl)-1H-1,2,4-triazol-5-yl)ethyl)-[1,2,4]triazolo[1,5-c]pyrimidine] showed a pIC50 of 7.23.

Compound `Cc1ncc(C)n2nc(CCc3nc(N4CC(C)C4)nn3C)nc12` [Example 89, 5,8-Dimethyl-2-{2-[2-methyl-5-(3-methyl-azetidin-1-yl)-2H-[1,2,4]triazol-3-yl]-ethyl}-[1,2,4]triazolo[1,5-a]pyrazine] gave a pIC50 of 6.97.

On to `Cc1ncc(C)n2nc(CCc3nc(N4CCCC4)nn3CC(F)(F)F)nc12` [Example 7, 5,8-Dimethyl-2-{2-[5-pyrrolidin-1-yl-2-(2,2,2-trifluoro-ethyl)-2H-[1,2,4]triazol-3-yl]-ethyl}-[1,2,4]triazolo[1,5-a]pyrazine], for which the pIC50 was 7.77.

`Cc1c(Cl)cc(C(F)(F)F)c2nc(CCc3nc(N4CCCC4)n(C4CC4)n3)nn12` [Example 131, 6-Chloro-2-(2-(1-cyclopropyl-5-(pyrrolidin-1-yl)-1H-1,2,4-triazol-3-yl)ethyl)-5-methyl-8-(trifluoromethyl)-[1,2,4]triazolo[1,5-a]pyridine]: the pIC50 was 8.80.

For the compound `Cc1ncc(C)n2nc(/C=C/c3nc(N4CCCC4)n(C)n3)nc12` [Example 17, 5,8-Dimethyl-2-[2-(1-methyl-5-pyrrolidin-1-yl-1H-[1,2,4]triazol-3-yl)-vinyl]-[1,2,4]triazolo[1,5-a]pyrazine], the pIC50 was 8.17.

Consider `Cc1c(C#N)cc(C#N)c2nc(CCc3nc(N4CCCC4)nn3C)nn12` [Example 78, 5-Methyl-2-[2-(2-methyl-5-pyrrolidin-1-yl-2H-[1,2,4]triazol-3-yl)-ethyl]-[1,2,4]triazolo[1,5-c]pyridine-6,8-dicarbonitrile], for which the pIC50 was 7.51.

Regarding `Cc1ncc(C)n2nc(CCc3nc(N4CC[C@@H](NC(=O)OC(C)(C)C)C4)nn3C)nc12` [Example 107, ((R)-1-{5-[2-(5,8-Dimethyl-[1,2,4]triazolo[1,5-a]pyrazin-2-yl)-ethyl]-1-methyl-1H-[1,2,4]triazol-3-yl}-pyrrolidin-3-yl)-carbamic acid tert-butyl ester], the pIC50 was 6.77.

In the case of `Cc1cc(C)n2nc(CCc3nc(N4CCC4)nn3C)nc2n1` [Example 21, 2-[2-(5-Azetidin-1-yl-2-methyl-2H-[1,2,4]triazol-3-yl)-ethyl]-5,7-dimethyl-[1,2,4]triazolo[1,5-a]pyrimidine], the pIC50 is 7.04.

As for `Cc1c(Cl)cc(C(F)(F)F)c2nc(CCc3nc(N4CCCC4)nn3C3CCOCC3)nn12` [Example 122, 6-Chloro-5-methyl-2-(2-(3-(pyrrolidin-1-yl)-1-(tetrahydro-2H-pyran-4-yl)-1H-1,2,4-triazol-5-yl)ethyl)-8-(trifluoromethyl)-[1,2,4]triazolo[1,5-a]pyridine], the pIC50 is 9.46.
